The text below walks through data of PMC12456999, “Sulfonyl Homoserine Lactones Are Tunable Probes to Inhibit the Quorum Sensing Receptor RhlR and Reduce Swarming Motility in Pseudomonas aeruginosa” (ACS Infectious Diseases, 2025).

By IC50 is commonly meant the concentration that gives 50% inhibition. High values mean weaker potency in that assay, low ones greater potency in that assay.

The target of the experiment is T1, RhlR (Pseudomonas aeruginosa, UniProt P54292).
T1 construct: expressed in transfected cells; host or cells: E. coli JLD271 (K-12 ΔlacX74 sdiA271::Cam) carrying pJN105-R2 (RhlR expression) and pSC11-rhlI (rhlI'-lacZ reporter)
T1 sequence (P54292 whole entry): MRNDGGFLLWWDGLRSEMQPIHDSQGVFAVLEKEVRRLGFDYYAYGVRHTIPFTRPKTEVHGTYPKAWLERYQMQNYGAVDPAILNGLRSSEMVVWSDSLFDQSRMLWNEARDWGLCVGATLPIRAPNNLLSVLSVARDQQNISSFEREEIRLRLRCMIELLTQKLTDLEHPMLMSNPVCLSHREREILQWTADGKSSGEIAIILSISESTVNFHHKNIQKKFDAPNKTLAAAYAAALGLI
Put plainly: P. aeruginosa PA14 ΔrhlIΔlasI RhlR GFP reporter antagonism assay. Format: cell-based. The following applies: for Max Inhibition (RhlR): P. aeruginosa PA14 ΔrhlIΔlasI, against 4 μM BHL with 10 μM OdDHL, highest concentrations tested. The method, then: We were interested in determining whether these new RhlR antagonists identified in an E. coli RhlR reporter maintained their activity in the native organism, P. aeruginosa. […] Antagonism of RhlR was measured in the presence of BHL and OdDHL (the latter signal was needed to induce the production of RhlR via LasR). […] The reasons for this reduction in activity are likely multifold, but we believe that they may stem from the low permeability of P. aeruginosa to small molecules, its lower (native) level of RhlR expression, its abundance of efflux pumps, and/or the cross-interaction of compounds with other targets (LasR, QscR, and potentially others) that then regulate RhlR. […] Nevertheless, these reporter data for sulfonyl HLs 39, 43, 59, and 75 in P. aeruginosa indicate that these compounds are capable of antagonizing RhlR activity in the native host.
RhlR activity in E. coli strain JLD271 (ΔsdiA) was measured via a β-galactosidase reporter (rhI-lacZ) using the Promega Beta-Glo Assay System as previously described. RhlR activity in P. aeruginosa PA14 (ΔrhlIΔlasI) was measured via a GFP reporter (rhlA-gfp). […] See Supporting Information for both reporter protocols.
Supporting Information — Aguirre-Figueroa et al.
P. aeruginosa RhlR reporter assay. RhlR activity in P. aeruginosa PA14 ΔrhlIΔlasI was measured via a GFP reporter. Briefly, a single colony of P. aeruginosa strain PA14 ΔrhlIΔlasI harboring the transcriptional fusion reporter pPROBE-GT rhlA-GFP (Table S1) was grown in LB medium with 40 μg/mL gentamicin overnight (~20 h). The culture was diluted 1:100 in fresh LB medium, without antibiotic, to an OD600 = 0.25 (0.22–0.30) (~1 h). Aliquots (2 μL) of compound DMSO stock solution or serial dilution were added to the inner wells (i.e., non-periphery rows) of a black, clear bottom 96-well plate. To 12 inner wells, DMSO alone (vehicle) was added to serve as controls (negative and positive). For the six negative control wells (no BHL), 198 μL of bacterial culture plus OdDHL (to achieve 10 μM) were added. For the six positive control wells (no test compound), 198 μL of bacterial culture plus OdDHL (10 μM) and BHL (to achieve 4 μM) were added. To all the remaining wells containing test compound, 198 μL of bacterial culture plus OdDHL (10 μM) and BHL (4 μM) were added. Water (200 μL) was added to the outer (periphery) wells to maintain humidity during incubation. Plates were incubated for 4 h at 37 °C. After incubation, the OD600 and GFP production (excitation at 500 nm, emission at 540 nm) were read for each well using a plate reader. To determine levels of RhlR activity, raw GFP production was divided by OD600 to correct for growth variation and then normalized to the negative (0%) and positive (100%) control wells.
Dose-response reporter assay data for compounds in the P. aeruginosa RhlR reporter.
Dose-response curves for RhlR agonism by BHL and for RhlR antagonism by selected compounds against 4 μM BHL using the P. aeruginosa PA14 RhlR reporter are provided below. Compound names are indicated on the x-axis of each plot. All assays performed in triplicate as at least three separate biological replicates. Error bars indicate SD of n = 3 trials. Curve fits generated using GraphPad Prism software (v9.0) using a variable slope sigmoidal curve fit. IC50 values for antagonists […]
Max Inhibition = 47% Max Inhibition = 59%
Max Inhibition = 49% Max Inhibition = 67%
(also on this page, place not known: % Activity % Activity % Activity % Activity % Activity)

Like-named read-outs stand apart in the source and are kept apart here.

For the molecule `O=C1OCC[C@@H]1NS(=O)(=O)c1cccc(Br)c1` [Compound 39, 3-bromo BSHL], the IC50 is above 1000 µM and the “Max Inhibition (RhlR)” value was found to be 47%.
For `O=C1OCC[C@@H]1NS(=O)(=O)c1ccc(Cl)c(Cl)c1` [Compound 43, 3,4-di-Cl BSHL], the IC50 was above 1000 µM and the “Max Inhibition (RhlR)” value was 59%.
For the molecule `O=C1OCC[C@@H]1NS(=O)(=O)c1ccc(F)c(F)c1` [Compound 59, 3,4-di-F BSHL], the half-inhibitory concentration (IC50) is above 1000 µM and the “Max Inhibition (RhlR)” value worked out at 49%.
`CCCCCS(=O)(=O)N[C@H]1CCOC1=O` [Compound 75, C5 ASHL]: the “Max Inhibition (RhlR)” value worked out at 67%. This molecule also had an IC50 (P. aeruginosa PA14 ΔrhlIΔlasI RhlR reporter) above 1000 µM.
